Test results reported in patent US20030162792A1, “Indole derivatives useful for the treatment of CNS disorders” (H. Lundbeck A/S, priority 2000, published 2003).
Structures can show the parent of a compound that is named as a salt. Where two headings read alike, the source gives them in different places.

Experiments:
[1] = target: T1, D4 receptor (Homo sapiens, UniProt P21917); settings: various in vitro efficacy assays; cited from earlier work
T1 sequence (P21917 1-419): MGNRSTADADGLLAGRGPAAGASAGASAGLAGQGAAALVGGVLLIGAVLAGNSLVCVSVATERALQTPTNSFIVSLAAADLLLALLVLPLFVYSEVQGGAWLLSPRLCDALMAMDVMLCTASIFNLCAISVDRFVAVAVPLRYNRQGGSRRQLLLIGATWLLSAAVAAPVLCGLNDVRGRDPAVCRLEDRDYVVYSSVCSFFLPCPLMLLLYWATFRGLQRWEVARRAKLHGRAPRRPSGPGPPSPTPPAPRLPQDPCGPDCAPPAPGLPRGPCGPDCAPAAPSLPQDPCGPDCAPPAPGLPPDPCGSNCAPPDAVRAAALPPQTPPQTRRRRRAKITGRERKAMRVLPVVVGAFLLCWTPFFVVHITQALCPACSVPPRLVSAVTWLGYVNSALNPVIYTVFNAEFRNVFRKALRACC

[2] = target: T2, human cloned dopamine D4.2 receptors expressed in CHO-cells (Homo sapiens, UniProt P21917, DEL265-296); assay: Inhibition of the binding of [3H]YM-09151-2 to human dopamine D4.2 receptors; settings: for D4-bind. % inhibition of binding: at 50 nM
T2 construct: expressed in transfected cells; host or cells: CHO cells
T2 sequence (P21917 with tags, fused parts or gaps DEL265-296): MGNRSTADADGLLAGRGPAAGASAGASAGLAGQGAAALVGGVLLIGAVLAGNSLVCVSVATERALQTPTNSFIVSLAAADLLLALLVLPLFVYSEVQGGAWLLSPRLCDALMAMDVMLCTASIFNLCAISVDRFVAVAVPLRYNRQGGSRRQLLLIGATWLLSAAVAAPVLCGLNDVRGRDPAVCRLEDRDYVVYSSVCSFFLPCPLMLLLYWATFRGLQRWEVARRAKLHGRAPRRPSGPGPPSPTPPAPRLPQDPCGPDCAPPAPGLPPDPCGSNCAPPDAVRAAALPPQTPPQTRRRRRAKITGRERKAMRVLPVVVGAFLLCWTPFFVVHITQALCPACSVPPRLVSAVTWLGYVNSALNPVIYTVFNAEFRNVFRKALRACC
Text: Method modified from NEN Life Science Products, Inc., technical data certificate PC2533-10/96.

[3] = target: T3, 5-HT2A receptors (Rattus norvegicus, UniProt P14842); assay: Inhibition of the binding of [3H]Ketanserin to 5-HT2A receptors
T3 construct: membranes from rat brain (cortex) in vitro; from tissue; host or cells: rat brain cortex membranes
T3 sequence (P14842 whole entry): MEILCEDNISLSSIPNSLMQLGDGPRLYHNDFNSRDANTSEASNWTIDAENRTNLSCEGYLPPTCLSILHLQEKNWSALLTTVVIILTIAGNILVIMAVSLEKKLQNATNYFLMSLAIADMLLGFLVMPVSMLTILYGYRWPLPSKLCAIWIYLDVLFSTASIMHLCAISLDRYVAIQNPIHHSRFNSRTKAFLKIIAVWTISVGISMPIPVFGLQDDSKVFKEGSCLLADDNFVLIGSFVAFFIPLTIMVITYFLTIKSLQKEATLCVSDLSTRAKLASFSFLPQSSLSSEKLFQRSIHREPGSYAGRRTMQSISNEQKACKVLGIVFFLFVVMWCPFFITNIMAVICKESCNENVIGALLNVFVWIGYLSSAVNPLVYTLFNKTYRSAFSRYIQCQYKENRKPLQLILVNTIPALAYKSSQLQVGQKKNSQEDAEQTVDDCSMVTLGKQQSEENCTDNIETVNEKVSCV
Protocol: Inhibition of the Binding of [^3H]Ketanserin to 5-HT2A Receptors
The compounds were tested with respect to their affinity for 5-HT2A receptors by determining their ability to inhibit the binding of [^3H]Ketanserin (0.50 nM) to membranes from rat brain (cortex) in vitro. Method described in Sanchez et al. Drug Dev. Res. 1991, 22, 239-250.

[4] = [3H]Ketanserin 0.50 nM, membranes from rat brain (cortex), read-out: 5-HT2A-bind. IC50

| SMILES | D4-bind. % inhibition of binding ([2]; [3H]YM-09151-2 0.06 nM) | IC50 [3, 4] [nM] | other results |
| --- | --- | --- | --- |
| CC(C)Oc1cccnc1N(C)C1CCN(Cc2ccccc2)CC1 [Compound U-101958] | – | – | Functional activity at D4 receptor (literature) [1]: partial D4 receptor agonists |
| Cl.O=S1(=O)c2cccc3cccc(c23)N1CCCN1CCN(c2ccc3cc[nH]c3c2)CC1 [Compound 1b, 2-{3-[4-(1H-Indol-6-yl)piperazin-1-yl]propan-1-yl}-2H-naphtho[1,8-cd]isothiazole 1,1-dioxide, Hydrochloride] | 91% (50 nM) | 1.8 | – |
| O=S1(=O)c2cccc3cccc(c23)N1CCCN1CC=C(c2ccc3[nH]ccc3c2)CC1 [Compound 1c, 2-{3-[4-(1H-Indol-5-yl)-3,6-dihydro-2H-pyridin-1-yl]propan-1-yl}-2H-naphtho[1,8-cd]isothiazole 1,1-dioxide, Hydrochloride] | – | – | IC50 [2]: 0.73 nM; IC50 [3]: 0.48 nM |
| O=S1(=O)c2cccc3cccc(c23)N1CCCN1CCC(c2ccc3[nH]ccc3c2)CC1 [Compound 1d, Hydrochloride] | 83% (50 nM) | 9.2 | – |
| O=S1(=O)c2cccc3cccc(c23)N1CCCN1CCN(c2ccc3[nH]ccc3c2)CC1 [Compound 1a, 2-{3-[4-(1H-Indol-5-yl)piperazin-1-yl]propan-1-yl}-2H-naphtho[1,8-cd]isothiazole 1,1-dioxide, Hydrochloride] | – | 0.79 | IC50 ([2]; [3H]YM-09151-2 0.06 nM, membranes of CHO cells, read-out: D4-bind. IC50): 1.9 nM |
